# Like-named read-outs stand apart in the source and are kept apart here.
# Columns and labels:
# Haemonchus contortus = assay: In vivo Anthelmintic Activity Test on Nematodes in sheep (egg excretion); design: key: "0" when there were no anthelmintic activities; "2" when excretion of parasite's eggs was observed; "3" when excretion of parasite's eggs stopped, that is, parasitic worms were removed completely; details: parasitic worms H, oral gelatin capsule
# Excerpt: (§1) Test 2 In vivo Anthelmintic Activity Test on Nematodes To each sheep which had artificially been infected with Trichostrongylus colubriformis (hereinafter abbreviated as "T") and Haemonchus contortus (hereinafter abbreviated as […]), respectively, a test substance weighed in a dose accurately calculated from the weight […] of the sheep was orally administered in the form of a gelatin capsule. The number of parasite's eggs excreted with feces from the sheep was counted quantitatively before and after the administration so that the degree of anthelmintic effects was determined. The anthelmintic effects are evaluated by rated numeral 0, 1, 2 or 3. The anthelmintic effects are rated "0" when there were no anthelmintic activities, "2" when excretion of parasite's eggs was observed, and "3" when excretion of parasite's eggs stopped, that is, parasitic worms were removed completely.
# [1] = system: Trichostrongylus colubriformis; assay: as above; design: key: "0" when there were no anthelmintic activities; "2" when excretion of parasite's eggs was observed; "3" when excretion of parasite's eggs stopped, that is, parasitic worms were removed completely; details: parasitic worms T, oral gelatin capsule, 0.5 mg/kg
# Excerpt: as §1
# [2] = system: Nippostrongylus brasillensis; assay: Anthelmintic effects on a rat intestinal nematode (N. brasillensis-infected rats); type: in vivo; details: male Wistar rats; for Number of remaining worms (average value ± SD): 10 mg/kg p.o. 7 days after inoculation, autopsy 10 days after inoculation; for % Effectiveness: 10 mg/kg p.o., compared with infected control group
# Method: Anthelmintic effects of certain PF1022 derivatives on a rat intestinal nematode were tested in accordance with the following method.
# Sixteen male Wistar rats were divided into eight groups (two rats per group), and about 2,000 larval worms of Nippostrongylus brasillensis were hypodermically inoculated per rat. Seven days after the inoculation, PF1022, PF1022E, PF1022-002, PF1022-003, PF1022-209, PF1022-218 and PF1022-219 were, as test substances, forcedly administered p.o. to the rats in the groups, respectively, in an amount of 10 mg/kg per rat. Upon administration, each test substance (8 mg) was dissolved in 0.2 ml of dimethyl sulfoxide and then, the resultant solution was diluted with distilled water to give a 2 ml suspension. Ten days after the inoculation,the rats were each subjected to autopsy and imaginal worms parasitic on the small intestines were counted.
# As the test results, the average of remaining worms in each of the eight groups and the percent effectiveness of the test substance in each group as compared with that of the infected control group are shown in Table 4.
# fowl roundworms = assay: Fowl Roundworm Eliminating Test; type: in vivo; details: infected fowls, worms counted to day 7
# Method: Test 1 Fowl Roundworm Eliminating Test Fowls (three fowls per group), which had been artificially infected with fowl roundworms and whose infection therewith had been confirmed by scatoscopy, were used as experimental animals. Upon administration of each test substance, the test substance weighed in a dose (mg) accurately calculated on the basis of the body weight (kg) of each fowl was suspended in carboxymethylcellulose-containing water, and the resulting suspension was administered orally as a single dose unit using a stomach tube. After the administration, the worms eliminated from the fowls were counted daily. Seven days after the administration, the fowl was sacrificed and autopsied and the worms remaining in its intestinal tract were counted. The percent elimination was calculated in accordance with the following calculation equation: [formula] Each test substance is indicated by the corresponding substance code name shown above in Table 1.
# [3] = amide bond, 24-membered ring, THF/DMF
structure (smiles),measurement,setting,value
"CC(C)C[C@H]1C(=O)O[C@H](Cc2ccccc2)C(=O)N(C)[C@@H](CC(C)C)C(=O)O[C@H](C)C(=O)N(C)[C@@H](CC(C)C)C(=O)O[C@H](Cc2ccccc2)C(=O)N(C)[C@@H](CC(C)C)C(=O)O[C@H](C)C(=O)N1C [PF1022, Cyclo-(L-MeLeu-D-Lac-L-MeLeu-D-PhLac-L-MeLeu-D-Lac-L-MeLeu-D-PhLac), reference compound]",Degree of effects,Haemonchus contortus; 0.05 mg/kg,3
same,Degree of effects,[1],3
same,Number of remaining worms (average value ± SD),[2],403 ± 32.5
same,% Effectiveness,[2]; 10 mg/kg,80%
same,% Effectiveness,"[2]; listed as PF 1022, 10 mg/kg",80.2%
same,% Elimination,fowl roundworms; single oral dose 0.5 mg/kg,50-70%
same,% Elimination,fowl roundworms; single oral dose 1.0 mg/kg,60-86%
same,% Elimination,fowl roundworms; single oral dose 2.0 mg/kg,100%
"CC(C)C[C@H]1OC(=O)[C@H](CC(C)C)N(C)C(=O)[C@@H](C)OC(=O)[C@H](CC(C)C)N(C)C(=O)[C@@H](Cc2ccccc2)OC(=O)[C@H](CC(C)C)N(C)C(=O)[C@@H](C)OC(=O)[C@H](CC(C)C)N(C)C1=O [PF1022-003, cyclo-(-L-MeLeu-D-Lac-L-MeLeu-D-PhLac-L-MeLeu-D-Lac-L-MeLeu-D-LEUA-)]",Number of remaining worms (average value ± SD),[2],689 ± 48.1
same,% Effectiveness,[2],66.1%
same,"ring closure, isolated yield","[3]; from H-MeLeu-dLEUA-MeLeu-dLac-MeLeu-dPhLac-MeLeu-dLac-OH, EDCI.HCl/HOBt/NMM/KCl/CsCl, 3 steps",44%
same,% Elimination,fowl roundworms; single oral dose 10 mg/kg,76%
"CC(C)CC1C(=O)OC(Cc2ccc(OCc3ccccc3)cc2)C(=O)N(C)C(CC(C)C)C(=O)OC(C)C(=O)N(C)C(CC(C)C)C(=O)OC(Cc2ccc(OCc3ccccc3)cc2)C(=O)N(C)C(CC(C)C)C(=O)OC(C)C(=O)N1C [PF1022-201, cyclo-(L-MeLeu-D-Lac-L-MeLeu-D-TYRA(OBn))2]",Degree of effects,Haemonchus contortus; 0.1 mg/kg,1
same,Degree of effects,Haemonchus contortus; 0.25 mg/kg,3
"CC(C)C[C@H]1C(=O)O[C@H](Cc2ccc(OC(C)(C)C)cc2)C(=O)N(C)[C@@H](CC(C)C)C(=O)O[C@H](C)C(=O)N(C)[C@@H](CC(C)C)C(=O)O[C@H](Cc2ccccc2)C(=O)N(C)[C@@H](CC(C)C)C(=O)O[C@H](C)C(=O)N1C [PF1022-215, cyclo-(L-MeLeu-D-PhLac-L-MeLeu-D-Lac-L-MeLeu-D-TYRA(O-t-Bu)-L-MeLeu-D-Lac)]",Degree of effects,Haemonchus contortus; 0.25 mg/kg,3
same,% Elimination,fowl roundworms; single oral dose 1.0 mg/kg,37%
same,% Elimination,fowl roundworms; single oral dose 2.0 mg/kg,98%
"CC(C)C[C@@H]1NC(=O)[C@@H](C)OC(=O)[C@H](CC(C)C)N(C)C(=O)[C@@H](Cc2ccccc2)OC(=O)[C@H](CC(C)C)NC(=O)[C@@H](C)OC(=O)[C@H](CC(C)C)N(C)C(=O)[C@@H](Cc2ccccc2)OC1=O [PF1022-219, cyclo-(L-MeLeu-D-Lac-L-Leu-D-PhLac)2]",Degree of effects,[1],3
same,Number of remaining worms (average value ± SD),[2],2084.5
same,% Effectiveness,[2],0%
CC(C)C[C@H]1C(=O)O[C@H](C(C)C)C(=O)N(C)[C@@H](CC(C)C)C(=O)O[C@H](Cc2ccccc2)C(=O)N(C)[C@@H](CC(C)C)C(=O)O[C@H](C(C)C)C(=O)N(C)[C@@H](CC(C)C)C(=O)O[C@H](Cc2ccccc2)C(=O)N1C [cyclo(L-MeLeu-D-VALA-L-MeLeu-D-PhLac)2],"ring closure, isolated yield","[3]; from H-MeLeu-dVALA-MeLeu-dPhLac-MeLeu-dVALA-MeLeu-dPhLac-OH, EDCI.HCl/HOBt/NMM/LiCl/KCl/NaCl/CsCl, 0.9 mM, 25.0 °C",56.5%
CC(C)C[C@H]1C(=O)O[C@H](C)C(=O)N(C)[C@@H](CC(C)C)C(=O)O[C@H](C)C(=O)N(C)[C@@H](CC(C)C)C(=O)O[C@H](C)C(=O)N(C)[C@@H](CC(C)C)C(=O)O[C@H](C)C(=O)N1C [cyclo-(L-MeLeu-D-Lac-)4],"ring closure, isolated yield","[3]; from H-MeLeu-dLac-MeLeu-dLac-MeLeu-dLac-MeLeu-dLac-OH, EDCI.HCl/HOBt/NMM/KCl/CsCl, 1.0 mM, 3 steps",86%
CC(C)C[C@H]1C(=O)O[C@H](Cc2ccc(OCc3ccccc3)cc2)C(=O)N(C)[C@@H](CC(C)C)C(=O)O[C@H](C)C(=O)N(C)[C@@H](CC(C)C)C(=O)O[C@H](Cc2ccc(OCc3ccccc3)cc2)C(=O)N(C)[C@@H](CC(C)C)C(=O)O[C@H](C)C(=O)N1C [cyclo-(L-MeLeu-D-Lac-L-MeLeu-D-TYRA(OBn))2],"ring closure, isolated yield","[3]; from H-MeLeu-dLac-MeLeu-dTYRA(OBn)-MeLeu-dLac-MeLeu-dTYRA(OBn)-OH, EDCI.HCl/HOBt/NMM/LiCl/NaCl/KCl/CsCl, 0.66 mM, 25.0 °C",60.5%
